Measurements reported in US8987320B2, “Solid salt forms of a pyrrole substituted 2-indolinone” (Zoetis LLC, priority 2005, dated 2015).
Where “and” joins values, the source holds several entries; their conditions need not be identical. Equal values may be shown once. Entries after “also recorded” stand apart in the source; their conditions may differ. Read-outs that look alike come from different tables or passages of the source.

How the values were obtained:
[1] = Dynamic moisture sorption gravimetry (DMSG) of salts of Compound I; format: physicochemical
Experimental: Dynamic Moisture Sorption Gravimetry (DMSG).
DMSG isotherm was collected on a temperature controlled atmospheric microbalance. Approximately 10 mg samples were placed in the sample pan of the balance. The humidity was sequentially varied from room relative humidity (RH) to 0% RH and was then increased to 90% RH followed by a decrease of RH to 0% again in 3% RH steps. The mass was then measured every two minutes. The RH was stepped to the next target value when change of the sample mass was less than 0.5 μg in 10 min. The Visual Basic program dmsgscn2.exe was used to control the data collection and export the information to an Excel spreadsheet.

[2] = Wettability with water; format: physicochemical
[3] = Compound I phosphate plasma levels in dogs with mast cell tumors (LC/MS/MS); format: in vivo, canine; settings: for concentration at 8 h / Cmax at 8 h: dog, plasma, oral; for Cmax at 8 h: dogs
Experimental: (§1) Study Design. This study was a proof of target modulation study in dogs with recurrent or metastatic grade MCTs. Patients received a single oral dose of Compound I phosphate at 3.25 mg/kg. Using a 6-mm punch biopsy instrument, samples were obtained from the tumor before Compound I phosphate administration and 8 hours (h) after treatment. When possible, multiple biopsies were taken. Each sample was flash frozen in liquid nitrogen and stored at −70° centigrade (C) before analysis. Blood samples for analysis of plasma levels of Compound I phosphate were obtained at the same time as tumor biopsies (see below).
Compound I Phosphate Plasma Levels. Blood samples were drawn from the jugular vein and placed into a red-top serum collection vacuum glass tube. Specimens were kept at room temperature, allowed to clot, centrifuged at 1500 rpm at 4° C. for 10 minutes, transferred to cryovials, and plasma frozen at −70° C. pending analysis. Briefly, plasma samples (20 μl) or Compound I phosphate standards in canine plasma were mixed with methanol (200 μl) containing DL-propranolol hydrochloride (internal standard) in a 96-well polypropylene plate (Orochem Technology, Westmont, Ill.). The plate was mixed by vortex for 1 min, and the samples were centrifuged for 10 min at 4000 rpm. Ten microliters of the supernatant were injected onto the LC/MS/MS system, in which separation occurred on a BataBasic C-18 (5 μm, 100×4.6 mm) reverse-phase high-performance liquid chromatography column (Keystone Scientific, Foster City, Calif.). The amount of Compound I phosphate and the internal standard in each canine plasma sample were quantified based on standard curves generated using known amounts of compound ranging from 0.2 to 500 ng/ml.

[4] = test system: KIT; assay: KIT phosphorylation in canine mast cell tumor biopsies before and after a single dose (immunoprecipitation/Western blot); format: in vivo
Experimental: as §1
Analysis of KIT and ERK Phosphorylation. Tumor biopsies were frozen in liquid nitrogen and later pulverized using a liquid nitrogen-cooled cryomortar and pestle, then stored at −70° C. until used. For the analysis of KIT, pulverized tumors were homogenized, lysed, and immunoprecipitated from 1 mg of starting tumor lysate, as described previously (Abrams, T. J., Lee, L. B., Murray, L. J., Pryer, N. K., Cherrington, J. M. SU11248 inhibits KIT and platelet-derived growth factor receptor beta in preclinical models of human small cell lung cancer. Mol. Cancer Ther. 2: 471-478, 2003; which is incorporated by reference in its entirety) using an agarose-conjugated antibody to KIT (SC-1493AC; Santa Cruz Biotechnology, Santa Cruz, Calif.). […] The amount of phosphorylated KIT in each sample was determined by Western blot using an antibody to phosphotyrosine 719 of murine KIT (3391; Cell Signaling Technology, Beverly, Mass.), which corresponds to tyrosine 721 of canine KIT and is an autophosphorylation site and, thus, a surrogate for KIT kinase activity. […] Target modulation was scored by eye by three observers blinded to the JM status and plasma concentration. Reduction of ≧50% in phospho-protein signal relative to total protein signal in the biopsy sample taken post-treatment compared with the pretreatment biopsy was scored as positive for target modulation, whereas a reduction of <50% was scored negative.

[5] = test system: ERK1/2; assay: ERK1/2 phosphorylation in canine mast cell tumor biopsies before and after a single dose (Western blot); format: in vivo; settings: single oral dose 3.25 mg/kg
Experimental: as §1
Analysis of KIT and ERK Phosphorylation. […] The amount of phosphorylated KIT in each sample was determined by Western blot using an antibody to phosphotyrosine 719 of murine KIT (3391; Cell Signaling Technology, Beverly, Mass.), which corresponds to tyrosine 721 of canine KIT and is an autophosphorylation site and, thus, a surrogate for KIT kinase activity. […] Target modulation was scored by eye by three observers blinded to the JM status and plasma concentration. Reduction of ≧50% in phospho-protein signal relative to total protein signal in the biopsy sample taken post-treatment compared with the pretreatment biopsy was scored as positive for target modulation, whereas a reduction of <50% was scored negative.

[6] = test system: recurrent mast cell tumors; assay: Multicenter, placebo-controlled, double blind, randomized study in dogs with recurrent mast cell tumors; format: in vivo
Experimental: Purpose. The effectiveness of Compound I phosphate oral tablets for the treatment of mast cell tumors in client-owned animals that had recurrent measurable disease after surgery was evaluated in a masked, negative controlled study. The study evaluated every-other-day dosing of Compound I phosphate at 3.25 mg free base equivalents (FBE)/kg body weight on disease response using modified (RECIST) criteria of response. The presence or absence of c-kit mutation in mast cell tumors was evaluated as a covariate in this study. For decision-making purposes, the duration of the study was 6 weeks.
One-hundred-fifty-three (153) dogs were randomized in a ratio of 4:3 into one of two treatment groups: T01 (Placebo in which n=65) and T02 (Compound I phosphate in which n=88). Ten veterinary oncology practices in the United States were selected and enrolled cases. For enrollment, dogs had to have recurrent mast cell tumor (at least one target lesion had to have a minimum longest diameter of 20 mm)±regional lymph node involvement. A maximum of three target lesions (measurable mast cell tumors) and all non-target lesions (all remaining lesions, measurable or un-measurable) were identified at baseline by two evaluators. Efficacy was based on the objective response (complete response or partial response) at the week 6 visit where the mean of the two evaluators sum of the longest diameter of target lesions (Mean Sum LD) was compared to the Baseline Mean Sum LD for calculation of percent reduction or increase. Assessment of non-target lesions was subjective. A complete response (CR) was defined as the disappearance of all target and non-target lesions and the appearance of no new lesions; a partial response (PR) was defined as at least a 30% decrease in the Mean Sum LD of target lesions compared to the Baseline Mean Sum LD and non-progression of non-target lesions and appearance of no new lesions. Tissue samples from the tumor and distant normal skin were collected prior to randomization and submitted for the assessment of c-kit mutation status.

- % water at 80% RH ([1]; 80% RH): ~1%
- water at 80 percent humidity ([1]; 80 percent relative humidity): about 1%
- wettability with water compared with Compound I free base [2]: much better
- concentration at 8 h ([3]; 3.25 mg/kg, single dose at 3.25 mg/kg, 8 h, read-out: average plasma concentration for dogs that did not score for KIT target modulation): 137 ± 36 ng/mL
- concentration at 8 h ([3]; 3.25 mg/kg, single dose at 3.25 mg/kg, 8 h, read-out: average plasma concentration for dogs with evidence of KIT target modulation): 79.2 ± 41 ng/mL
- Cmax at 8 h ([3]; 3.25 mg/kg, single dose at 3.25 mg/kg, read-out: plasma concentration at 8 h (approximately Cmax), average): 105 ± 9 ng/mL
- Cmax at 8 h ([3]; 3.25 mg/kg, single dose at 3.25 mg/kg, read-out: plasma concentration at 8 h (approximately Cmax), range over dogs): 33.2 to 186 ng/mL
- dogs with plasma levels considered to be in the therapeutic range ([3]; single dose at 3.25 mg/kg, 8 h): Twelve
SMILES: Cc1[nH]c(/C=C2\C(=O)Nc3ccc(F)cc32)c(C)c1C(=O)NCCN1CCCC1 [Compound I phosphate]
- Plasma Compound I phosphate postdose ([3]; individual dogs, single oral dose 3.25 mg/kg, 8 h after dosing, 3.25 mg/kg): 0.3 ng/mL and 83.5 ng/mL and 98.0 ng/mL and 116.0 ng/mL and 121.0 ng/mL and 186.0 ng/mL and 103.0 ng/mL and 111.0 ng/mL and 158.0 ng/mL and 65.3 ng/mL and 95.4 ng/mL and 119.0 ng/mL and 81.0 ng/mL and 33.2 ng/mL
- evaluable MCT biopsy pairs with detectable inhibition of KIT activation ([4]; Eight of 11, single oral dose): 73%
- P-KIT reduction postdose (Phospho-Tyr721 KIT) ([4]; individual dogs, single oral dose 3.25 mg/kg, biopsy 8 h after treatment vs pretreatment): Yes (Reduction of ≧50% in phospho-protein signal relative to total protein signal in the biopsy sample taken post-treatment compared with the pretreatment biopsy was scored as positive for target modulation); also recorded: No (a reduction of <50% was scored negative)
- evaluable dogs scored positive for KIT target modulation (≧50% reduction in phosphorylated KIT relative to total KIT) ([4]; single oral dose 3.25 mg/kg): Eight
- P-ERK½ reduction postdose (Phospho-Thr202/Tyr204 ERK½) ([5]; individual dogs, biopsy 8 h after treatment vs pretreatment): Yes (Reduction of ≧50% in phospho-protein signal relative to total protein signal in the biopsy sample taken post-treatment compared with the pretreatment biopsy was scored as positive for target modulation); also recorded: No (a reduction of <50% was scored negative)
- evaluable tumors showing a reduction in the ratio of phospho-ERK1/2 to total ERK1/2 [5]: 7 of 11 evaluable
- animals that experienced progressive disease ([6]; 3.25 mg FBE/kg every other day, 6 weeks, 29/86): 33.7%
- objective response rate (complete or partial response) ([6]; 3.25 mg FBE/kg every other day, oral tablets, week 6, 33/86): 38.3%
- objective response, dogs positive for the c-kit mutation ([6]; T02 group, 12/20): 60%
- objective response, dogs negative for the c-kit mutation ([6]; T02 group, 21/64): 32.8%
